Source: PMC7822819, “Discovery of a new class of integrin antibodies for fibrosis” (Scientific Reports, 2021)

Assays:
[1] = tested on: CHOK1 parental cells; test: Cell adhesion assay (Epic) on fibronectin; assay type: cell-based, hamster; conditions: in words
[2] = tested on: bleomycin-induced lung fibrosis; test: Bleomycin-induced lung fibrosis mouse model; assay type: in vivo; conditions: BLM mice, Nintedanib 60 mpk po qd
Method: Adult male C57BL/6 mice (Taconic, Rensselaer, NY) were housed in a temperature and humidity-controlled facility with a 12 h light: 12-h dark cycle. Animals had ad libitum access to food (Purina Rodent Chow 5053, LabDiet, St. Louis, MO) and water. All procedures utilizing experimental animals were conducted in accordance with the Guide for the Care and Use of Laboratory Animals, and experimental procedures were reviewed and approved by the Institutional Animal Care and Use Committee at MRL, Kenilworth, NJ. For osmotic minipump implantation, TFA salt of MK-0429 was formulated in 50% DMSO/50% H2O at a concentration of 416 mg/mL. MK-0429 or vehicle solution were filled in minipumps (Alzet, # 1007D, flow rate 0.5 μL/h). Minipumps were placed in mice subcutaneously in a pocket on the back between the shoulder blades. A small incision was made and a subcutaneous pocket formed by blunt dissection. A sterile minipump was inserted into the subcutaneous pocket. The incision was closed with staples or non-absorbable suture or absorbable (subcuticular) suture. The minipumps were used for continuous drug delivery for 2 weeks. Mice at 12 ~ 13 weeks of age were randomized to 5 groups: saline, bleomycin instillation with vehicle (osmotic minipump), bleomycin instillation with MK-0429 treatment, bleomycin instillation with vehicle oral treatment, and bleomycin instillation with Nintedanib treatment. All mice were anaesthetized with isoflurane. Bleomycin was dosed by intra-tracheal (i.t) instillation in a volume of 50 µl, at a dose of 1unit /kg body weight. After instillation, mice were kept in a heads-up position for 2–5 min before putting into cages. MK-0429 (200 mg/kg) was administered by Osmotic pump from day 5 to day 14 and Nintedanib (60 mg/kg) was administered, p.o., q.d., for 14 days. Vehicle was dosed orally at 10 am daily from the day 5 to the end of the studies and dosing volume was 10 mL/kg. For plasma PK analysis, an aliquot of 50 μL plasma was spiked into a 96-well plate, and 200 μL of acetonitrile containing internal standard were added for protein precipitation. The mixture was vortexed, centrifuged at 4000 rpm for 20 min. 50 μL of supernatant were mixed with 200 μl H2O and the final solution were injected for LC–MS/MS analysis. The methods for quantitative analysis were developed on UPLC (Waters) chromatographic system equipped with an API4000 QTrap mass spectrometer (Applied Biosystems, Concord, Ontario, Canada). Analyst 1.5 software packages (Applied Biosystems) were used to control the LC–MS/MS system and data acquisition and processing. Upon completion of the study, animals were euthanized and tissues were collected for histological assessment. Lung tissues were perfused with 10% formalin, fixed for 24 h, and then paraffin embedded. Tissue sections were stained with hematoxylin & eosin (H&E) and Masson’s trichrome, subsequently evaluated under light microscope. The severity of histopathologic changes and fibrosis in the lung were graded as described previously by pathologists[51],[52]. Following deparaffinization and rehydration, each lung tissue section was processed to identify αSMA deposition by immunohistochemistry. The primary antibodies used were αSMA antibody from Sigma. The Aperio ScanScope XT Slide Scanner (Aperio Technologies) system was used to capture whole slide digital images with a 20 × objective. Digital images were managed using Aperio Spectrum. The positive stains were identified and quantified using a macro created from a color deconvolution algorithm (Aperio Technologies). Statistical analysis was performed by using One-way ANOVA followed by Tukey’s test.

[3] = molecular target: T1, mouse α5β1 (Mus musculus, UniProt P09055+P11688); test: AlphaLISA integrin-ligand binding assay; assay type: biochemical; conditions: Fig. 4B; read-out: IC50 Mouse integrin AlphaLISA assays: mα5β1
T1 construct: mα5 1 999; m β1 1 728; made in house; host or cells: Expi293
Method: (§1) In the AlphaLISA integrin assays, we used a HEPES based buffer (25 mM HEPES pH 7.4, 137 mM NaCl, 1 mM MgCl2, 1 mM MnCl2, 2 mM CaCl2, 2.7 mM KCl, and 0.05% Tween-20). Optimal assay conditions were determined with a titration of the reagents for signal noise ratio (S/N), linear range, etc. For the respective integrins, we used the final concentrations described in Supplemental Table S3. Briefly, the testing antibody (8 μL) was added as a 4x (of Final testing concentration) solution in the HEPES buffer described previously into a 384w AlphaPlate (Perkin Elmer #6005350). Then the integrin and ligand were added sequentially as 8x (4 μL each). Plates were sealed and incubated at room temperature for 2 h. Then 4 × acceptor bead solution (8 μL) was added, and the plates were resealed and incubated at RT for 1 h. Finally, 4 × (8 μL) donor beads solution was added in a darkened room and incubated for 45 min at room temperature. Plates were read on the Envision (Perkin Elmer) in AlphaScreen mode within 3 h of donor bead addition.
(§2) Supplemental Table S3. integrin AlphaLIS A assay reagents and conditions Human A l phal i sa Inte gri n A ssays: Fi nal Condi ti ons […]
(§3) ( batch de pe nde nt) anti body A l phaLi sa A cce ptor havb1 1. 4 nM 1. 0 nMα - Fi brone cti n human Fi brone cti n n/a A cce ptor be ads/ Pe rki n 10. 0 ug/ m 10. 0 ug/ m […]
(§4) havb3 3. 0 nM 10. 0 nMhuman V i trone cti n- GST α - GS T A cce p t o r ug/ m Stre ptavi di n Donor ug/ m tagge d n/a be ads/ Pe rki n 15. 0 l be ads/ Pe rki n El me r 15. 0 l […]
(§5) havb6 0. 1 nM 0. 5 nM 3. […]
(§6) Mouse A l phal i sa Inte gri n A ssays: Fi nal Condi ti ons […]
(§7) m aV b 1 4. 3 nM 1. 0 nMmouse f i brone cti n A bcam α - Fi brone cti n ( Rabbi t […]
(§8) 0 nM 5. […] 0nM be ads/ Pe rki n El me r […]
(§9) m aV b 6 1. 4 nM 2. 5 nMmouse LA P- 6Hi s α - 6x HI S / P e rk i n El m e r ug/ m ug/ m m aV b 8 1. 0 nM 2. 5 nMChe mpartne rn/a( A L 128) 15 l 15 l

[4] = molecular target: T2, mouse αvβ3 (Mus musculus, UniProt O54890+P43406); test: AlphaLISA integrin-ligand binding assay; assay type: biochemical; conditions: Fig. 4B; read-out: IC50 Mouse integrin AlphaLISA assays: mαvβ3
T2 construct: mαV 1 988; m β3 1 717; made in house; host or cells: Expi293
Method: as §1, §2, §3, §4, §5, §6, §7, §8, §9

[5] = molecular target: T3, mouse αvβ8 (Mus musculus, UniProt P43406+Q0VBD0); test: AlphaLISA integrin-ligand binding assay; assay type: biochemical; conditions: Fig. 4B; read-out: IC50 Mouse integrin AlphaLISA assays: mαvβ8
T3 construct: mαV 1 988; m β8 1 679; made in house; host or cells: Expi293
Method: as §1, §2, §3, §4, §5, §6, §7, §8, §9

[6] = treatment from day 5 for 14 days, MK-0429 200 mpk osmotic minipump, vs BLM-vehicle

T1 sequence (P11688 45-999): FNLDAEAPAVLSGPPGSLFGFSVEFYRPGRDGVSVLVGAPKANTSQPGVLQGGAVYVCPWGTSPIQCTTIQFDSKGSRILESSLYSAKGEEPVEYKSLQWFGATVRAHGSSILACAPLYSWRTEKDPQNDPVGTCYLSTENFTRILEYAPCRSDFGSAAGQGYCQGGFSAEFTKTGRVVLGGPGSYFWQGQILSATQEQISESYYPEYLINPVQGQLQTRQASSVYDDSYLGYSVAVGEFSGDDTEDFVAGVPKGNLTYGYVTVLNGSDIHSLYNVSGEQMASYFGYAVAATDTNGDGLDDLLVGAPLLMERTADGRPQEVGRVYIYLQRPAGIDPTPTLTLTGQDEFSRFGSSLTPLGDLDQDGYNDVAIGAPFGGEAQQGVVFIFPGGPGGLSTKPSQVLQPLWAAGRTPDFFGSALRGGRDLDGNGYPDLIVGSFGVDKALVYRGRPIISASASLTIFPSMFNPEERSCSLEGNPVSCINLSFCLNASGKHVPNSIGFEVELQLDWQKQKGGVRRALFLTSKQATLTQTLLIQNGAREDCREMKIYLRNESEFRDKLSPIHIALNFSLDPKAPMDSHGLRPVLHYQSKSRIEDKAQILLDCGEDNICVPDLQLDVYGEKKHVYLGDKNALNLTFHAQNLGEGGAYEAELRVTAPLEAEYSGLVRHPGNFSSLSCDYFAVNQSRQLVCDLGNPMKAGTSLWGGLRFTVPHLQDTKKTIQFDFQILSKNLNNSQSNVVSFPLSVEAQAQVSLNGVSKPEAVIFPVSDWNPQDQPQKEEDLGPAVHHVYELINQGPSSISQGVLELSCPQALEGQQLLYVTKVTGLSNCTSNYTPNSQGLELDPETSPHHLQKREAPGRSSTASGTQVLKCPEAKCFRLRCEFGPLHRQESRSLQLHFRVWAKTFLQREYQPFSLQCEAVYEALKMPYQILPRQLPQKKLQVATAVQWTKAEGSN
T1 sequence (P09055 21-728): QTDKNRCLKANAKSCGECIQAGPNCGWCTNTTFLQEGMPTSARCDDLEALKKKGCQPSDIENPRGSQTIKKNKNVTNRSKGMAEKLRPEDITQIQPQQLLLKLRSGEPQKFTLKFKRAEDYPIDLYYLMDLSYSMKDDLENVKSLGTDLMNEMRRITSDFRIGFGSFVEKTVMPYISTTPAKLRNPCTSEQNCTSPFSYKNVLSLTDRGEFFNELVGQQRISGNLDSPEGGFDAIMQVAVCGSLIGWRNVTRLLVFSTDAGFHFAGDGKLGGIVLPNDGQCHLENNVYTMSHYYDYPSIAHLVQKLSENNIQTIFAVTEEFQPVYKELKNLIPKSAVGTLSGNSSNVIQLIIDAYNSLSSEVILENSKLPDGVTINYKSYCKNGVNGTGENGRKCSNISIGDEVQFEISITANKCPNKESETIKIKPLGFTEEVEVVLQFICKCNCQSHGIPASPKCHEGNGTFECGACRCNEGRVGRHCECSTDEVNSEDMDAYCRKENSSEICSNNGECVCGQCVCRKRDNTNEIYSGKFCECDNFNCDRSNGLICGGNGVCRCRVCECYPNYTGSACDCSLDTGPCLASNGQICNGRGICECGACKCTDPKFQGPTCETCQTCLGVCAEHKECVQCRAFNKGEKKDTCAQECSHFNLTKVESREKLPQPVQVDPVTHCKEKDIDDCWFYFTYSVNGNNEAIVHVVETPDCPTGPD
T2 sequence (P43406 31-988): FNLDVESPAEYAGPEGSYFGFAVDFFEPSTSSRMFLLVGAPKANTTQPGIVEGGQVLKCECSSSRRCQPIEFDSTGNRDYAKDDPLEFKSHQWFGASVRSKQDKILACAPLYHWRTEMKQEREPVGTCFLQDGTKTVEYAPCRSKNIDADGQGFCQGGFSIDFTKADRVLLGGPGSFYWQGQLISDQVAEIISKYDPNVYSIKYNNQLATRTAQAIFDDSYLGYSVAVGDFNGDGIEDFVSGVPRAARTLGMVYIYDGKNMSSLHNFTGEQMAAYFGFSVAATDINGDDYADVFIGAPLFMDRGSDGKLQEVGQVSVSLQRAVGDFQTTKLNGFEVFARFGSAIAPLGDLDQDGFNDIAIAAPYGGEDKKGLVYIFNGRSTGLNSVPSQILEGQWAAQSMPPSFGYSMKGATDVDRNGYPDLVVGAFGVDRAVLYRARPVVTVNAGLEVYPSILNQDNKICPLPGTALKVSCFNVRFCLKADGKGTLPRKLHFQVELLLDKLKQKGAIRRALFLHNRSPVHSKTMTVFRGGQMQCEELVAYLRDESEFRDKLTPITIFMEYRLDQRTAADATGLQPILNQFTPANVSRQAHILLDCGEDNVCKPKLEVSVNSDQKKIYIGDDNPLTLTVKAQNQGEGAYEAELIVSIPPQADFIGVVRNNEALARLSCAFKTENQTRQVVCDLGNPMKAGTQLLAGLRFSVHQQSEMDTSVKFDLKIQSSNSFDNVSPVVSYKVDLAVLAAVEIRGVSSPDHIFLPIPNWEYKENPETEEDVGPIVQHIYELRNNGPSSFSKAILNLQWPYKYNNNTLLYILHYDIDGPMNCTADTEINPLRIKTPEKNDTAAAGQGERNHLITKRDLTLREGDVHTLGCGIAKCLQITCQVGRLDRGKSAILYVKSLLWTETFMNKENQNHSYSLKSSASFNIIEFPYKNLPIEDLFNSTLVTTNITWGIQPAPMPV
T2 sequence (O54890 26-717): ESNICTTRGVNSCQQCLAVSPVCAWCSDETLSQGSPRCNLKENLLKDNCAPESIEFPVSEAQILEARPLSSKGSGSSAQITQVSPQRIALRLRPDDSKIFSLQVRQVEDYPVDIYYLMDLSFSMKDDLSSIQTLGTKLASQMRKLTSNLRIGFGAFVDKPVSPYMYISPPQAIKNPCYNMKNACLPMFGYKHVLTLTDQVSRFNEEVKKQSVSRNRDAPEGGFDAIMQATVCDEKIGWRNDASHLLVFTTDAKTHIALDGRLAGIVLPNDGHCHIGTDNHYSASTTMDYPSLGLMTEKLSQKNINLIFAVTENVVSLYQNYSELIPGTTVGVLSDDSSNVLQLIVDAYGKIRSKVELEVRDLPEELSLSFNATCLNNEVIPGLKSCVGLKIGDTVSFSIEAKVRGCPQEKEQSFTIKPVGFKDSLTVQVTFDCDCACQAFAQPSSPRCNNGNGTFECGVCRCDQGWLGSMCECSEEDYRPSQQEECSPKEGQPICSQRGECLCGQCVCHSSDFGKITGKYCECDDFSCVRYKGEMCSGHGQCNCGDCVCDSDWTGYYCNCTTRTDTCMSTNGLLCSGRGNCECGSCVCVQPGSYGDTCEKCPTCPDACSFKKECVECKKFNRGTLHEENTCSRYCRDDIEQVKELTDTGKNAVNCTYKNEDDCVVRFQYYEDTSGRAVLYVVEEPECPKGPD
T3 sequence (P43406 31-988): as the sequence (P43406 31-988) above
T3 sequence (Q0VBD0 22-679): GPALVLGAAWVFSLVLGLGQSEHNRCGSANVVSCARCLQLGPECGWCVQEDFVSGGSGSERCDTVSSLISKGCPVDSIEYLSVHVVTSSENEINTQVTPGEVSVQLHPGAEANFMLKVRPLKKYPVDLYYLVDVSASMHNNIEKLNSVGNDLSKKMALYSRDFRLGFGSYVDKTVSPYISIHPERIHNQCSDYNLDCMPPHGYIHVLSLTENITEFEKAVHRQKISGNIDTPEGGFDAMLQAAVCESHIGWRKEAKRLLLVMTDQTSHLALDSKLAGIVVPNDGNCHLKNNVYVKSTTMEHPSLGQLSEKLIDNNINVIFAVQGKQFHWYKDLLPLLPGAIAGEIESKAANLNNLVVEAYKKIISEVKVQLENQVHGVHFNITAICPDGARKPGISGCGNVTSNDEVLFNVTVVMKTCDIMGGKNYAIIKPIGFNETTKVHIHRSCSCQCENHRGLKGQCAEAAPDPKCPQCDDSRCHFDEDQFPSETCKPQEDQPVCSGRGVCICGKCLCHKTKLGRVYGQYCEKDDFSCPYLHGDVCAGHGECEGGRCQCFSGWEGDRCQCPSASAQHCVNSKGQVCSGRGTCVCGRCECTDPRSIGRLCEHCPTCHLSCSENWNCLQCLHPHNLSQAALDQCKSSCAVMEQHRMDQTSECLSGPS

IC50 [3]: 50.3 nM | IC50 [4]: 0.9 nM | IC50 [5]: 5.3 nM
SMILES: COc1ccc(C(CC(=O)O)N2CCN(CCCc3ccc4c(n3)NCCC4)C2=O)cn1 (stereo not drawn) [MK-0429]
Effect on cell adhesion, CHOK1 parental cells [1]: little inhibitory activity | TIMP-1 content in BALF ([2]; 14 days treatment, MK-0429 200 mpk minipump): did not reach statistical significance | Modified Ashcroft score of mouse lung [2, 6]: significantly decreased | Total inflammation area in mouse lungs [2, 6]: nonstatistical significant decrease | αSMA immunohistochemistry in lung [2, 6]: significantly decreased | Body weight vs bleomycin group ([2]; MK-0429 200 mpk minipump): no significant body weight difference
